In one test the target is mTORC1 (mTOR/GbL/Raptor) (Homo sapiens, UniProt P42345). Kind of test: mTOR/GbL/Raptor (mTORC1) ELISA Assay. It counts as biochemical. The following applies: 0.2 nM mTORC1, 10 μM ATP, 50 nM NHis-tagged 4E-BP1; phosphorylation of 4E-BP1; read-out: IC50. On the procedure:
mTOR/GbL/Raptor (mTORC1) ELISA Assay
The measurement of mTORC1 enzyme activity was performed in an ELISA assay format following the phosphorylation of 4E-BP1 protein. All experiments were performed in the 384-well format. Generally, 0.5 μL DMSO containing varying concentrations of the test compound was mixed with 15 μL enzyme solution. Kinase reactions were initiated with the addition of 15 μL of substrates-containing solution. The assay conditions were as follows; 0.2 nM mTORC1, 10 μM ATP and 50 nM NHis-tagged 4E-BP1 in 20 mM Hepes, pH 7.2, 1 mM DTT, 50 mM NaCl, 10 mM MnCl2, 0.02 mg/mL BSA, 0.01% CHAPS, 50 mM β-glycerophosphate. Following an incubation of 120 minutes at ambient temperature, 20 μL of the reaction volume was transferred to a Ni-Chelate-coated 384-well plate. The binding step of the 4E-BP1 protein proceeded for 60 minutes, followed by washing 4 times each with 50 μL of Tris-buffered saline solution (TBS). Anti-phospho-4E-BP1 rabbit-IgG (20 μL, 1:5000) in 5% BSA-TBST (0.2% Tween-20 in TBS) was added and further incubated for 60 minutes. Incubation with a secondary HRP-tagged anti-IgG was similarly performed after washing off the primary antibody (4 washes of 50 μL). Following the final wash step with TBST, 20 μL of SuperSignal ELISA Femto (Pierce Biotechnology) was added and the luminescence measured using an EnVision plate reader.

A further test deals with PI3Kα (Homo sapiens, UniProt P42336). Put plainly: PI3K Biochemical Assays (ATP consumption, luciferase-luciferin chemiluminescence). As to conditions: PI3Kα 1.5 nM, ATP 1 μM, PIP2 10 μM; percent of ATP consumed. On the procedure:
PI3Kα activity is measured as the percent of ATP consumed following the kinase reaction using luciferase-luciferin-coupled chemiluminescence. Reactions were conducted in 384-well white, medium binding microtiter plates (Greiner). Kinase reactions were initiated by combining test compounds, ATP, substrate (PIP2), and kinase in a 20 μL volume in a buffer solution. The standard PI3Kalpha assay buffer is composed 50 mM Tris, pH 7.5, 1 mM EGTA, 10 mM MgCl2, 1 mM DTT and 0.03% CHAPS. The standard assay concentrations for enzyme, ATP, and substrate are 1.5 nM, 1 μM, and 10 μM, respectively. The reaction mixture was incubated at ambient temperature for approximately 2 h. Following the kinase reaction, a 10 μL aliquot of luciferase-luciferin mix (Promega Kinase-Glo) was added and the chemiluminescence signal measured using a Victor2 plate reader (Perkin Elmer). Total ATP consumption was limited to 40-60% and IC50 values of control compounds correlate well with literature references. Substituting PI3Kα with PI3KIβ, […], or […], the inhibitory activity of the compounds for the other isoforms of I3K were measured.

Structures are written as SMILES.

Chain of PI3Kα (P42336 whole entry): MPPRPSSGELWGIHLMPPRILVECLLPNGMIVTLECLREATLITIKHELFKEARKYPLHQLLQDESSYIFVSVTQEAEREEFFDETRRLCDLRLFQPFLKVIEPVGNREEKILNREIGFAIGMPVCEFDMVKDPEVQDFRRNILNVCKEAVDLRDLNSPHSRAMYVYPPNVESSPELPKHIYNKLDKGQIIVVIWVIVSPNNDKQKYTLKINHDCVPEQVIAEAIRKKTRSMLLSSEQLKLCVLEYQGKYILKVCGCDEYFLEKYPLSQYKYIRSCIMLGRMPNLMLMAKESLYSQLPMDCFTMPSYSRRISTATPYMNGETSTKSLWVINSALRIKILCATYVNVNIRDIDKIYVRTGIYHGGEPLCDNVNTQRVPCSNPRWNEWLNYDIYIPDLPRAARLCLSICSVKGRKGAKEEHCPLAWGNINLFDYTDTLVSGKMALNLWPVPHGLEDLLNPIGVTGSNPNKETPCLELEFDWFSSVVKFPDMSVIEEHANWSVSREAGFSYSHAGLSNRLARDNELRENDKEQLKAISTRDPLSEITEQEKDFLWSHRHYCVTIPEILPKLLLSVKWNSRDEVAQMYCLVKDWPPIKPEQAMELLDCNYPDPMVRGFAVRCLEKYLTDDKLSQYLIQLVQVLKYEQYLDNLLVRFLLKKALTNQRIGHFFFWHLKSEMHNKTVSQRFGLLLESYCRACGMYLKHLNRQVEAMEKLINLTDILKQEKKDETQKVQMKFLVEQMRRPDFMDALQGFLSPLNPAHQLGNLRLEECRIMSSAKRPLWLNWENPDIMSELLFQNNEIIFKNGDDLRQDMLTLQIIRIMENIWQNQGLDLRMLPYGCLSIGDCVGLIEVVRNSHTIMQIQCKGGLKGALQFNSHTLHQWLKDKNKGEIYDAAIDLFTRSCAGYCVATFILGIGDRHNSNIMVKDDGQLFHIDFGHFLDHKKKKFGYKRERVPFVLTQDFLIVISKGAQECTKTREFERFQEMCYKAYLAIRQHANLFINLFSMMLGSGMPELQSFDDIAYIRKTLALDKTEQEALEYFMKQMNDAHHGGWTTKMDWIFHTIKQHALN
Chain of PI3Kα (P27986 whole entry partner): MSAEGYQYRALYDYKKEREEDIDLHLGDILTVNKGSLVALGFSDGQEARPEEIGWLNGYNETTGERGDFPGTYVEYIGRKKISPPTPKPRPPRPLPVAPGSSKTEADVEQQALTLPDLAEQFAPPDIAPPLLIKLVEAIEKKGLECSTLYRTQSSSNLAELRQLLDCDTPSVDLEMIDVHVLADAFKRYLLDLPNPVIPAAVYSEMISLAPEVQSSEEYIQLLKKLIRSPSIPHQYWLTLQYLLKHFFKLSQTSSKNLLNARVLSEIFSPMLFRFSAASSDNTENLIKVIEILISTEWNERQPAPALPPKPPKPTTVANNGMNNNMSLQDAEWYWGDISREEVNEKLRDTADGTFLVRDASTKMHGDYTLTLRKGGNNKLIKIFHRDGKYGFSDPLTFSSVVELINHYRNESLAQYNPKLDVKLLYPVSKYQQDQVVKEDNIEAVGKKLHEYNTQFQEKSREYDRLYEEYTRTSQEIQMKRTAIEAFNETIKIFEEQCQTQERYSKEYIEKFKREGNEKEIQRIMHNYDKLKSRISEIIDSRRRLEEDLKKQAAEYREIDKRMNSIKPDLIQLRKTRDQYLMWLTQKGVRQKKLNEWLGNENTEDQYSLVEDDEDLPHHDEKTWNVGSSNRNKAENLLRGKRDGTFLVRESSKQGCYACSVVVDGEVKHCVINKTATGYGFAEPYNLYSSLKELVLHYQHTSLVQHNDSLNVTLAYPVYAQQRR

Consider `O=C(N1CCC(C(F)(F)F)CC1)N1CCOc2ccc(-c3ccc(-c4ncc[nH]4)cc3)cc2C1` [Compound 7, 7-[4-(1H-imidazol-2-yl)phenyl]-4-{[4-(trifluoromethyl)piperidin-1-yl]carbonyl}-2,3,4,5-tetrahydro-1,4-benzoxazepine], for which the IC50 at mTORC1 (mTOR/GbL/Raptor) is no more than 50 nM; against PI3Kα it was no more than 75 nM.

Regarding `CC1CCN(C(=O)N2CCOc3ccc(-c4cncs4)cc3C2)CC1` [Compound 8, 4-[(4-methylpiperidin-1-yl)carbonyl]-7-(1,3-thiazol-5-yl)-2,3,4,5-tetrahydro-1,4-benzoxazepine], the IC50 on mTORC1 (mTOR/GbL/Raptor) was 250 to 700 nM; against PI3Kα, 1000 to 3000 nM.

For the molecule `COC(=O)Nc1nc2ccc(-c3ccc4c(c3)CN(C(=O)N3CCC(=O)CC3c3cccc(F)c3)CCO4)cc2[nH]1` (stereo not drawn) [Compound 11, methyl [6-(4-{[2-(3-fluorophenyl)-4-oxopiperidin-1-yl]carbonyl}-2,3,4,5-tetrahydro-1,4-benzoxazepin-7-yl)-1H-benzimidazol-2-yl]carbamate], the IC50 was 50 to 250 nM on mTORC1 (mTOR/GbL/Raptor) and no more than 75 nM against PI3Kα.

`COC(=O)Nc1nc2ccc(-c3ccc4c(c3)CN(C(=O)N3CCCCC3c3ccc(F)cc3)CCO4)cc2[nH]1` (stereo not drawn) [Compound 12, methyl [6-(4-{[2-(4-fluorophenyl)piperidin-1-yl]carbonyl}-2,3,4,5-tetrahydro-1,4-benzoxazepin-7-yl)-1H-benzimidazol-2-yl]carbamate]: the IC50 was 50 to 250 nM on mTORC1 (mTOR/GbL/Raptor) and no more than 75 nM at PI3Kα.

With `COC(=O)Nc1nc2ccc(-c3ccc4c(c3)CN(C(=O)N3CCC(CF)CC3)CCO4)cc2[nH]1` [Compound 13, methyl [6-(4-{[4-(fluoromethyl)piperidin-1-yl]carbonyl}-2,3,4,5-tetrahydro-1,4-benzoxazepin-7-yl)-1H-benzimidazol-2-yl]carbamate], the figures for the IC50 at mTORC1 (mTOR/GbL/Raptor) and against PI3Kα were 50 to 250 nM and 75 to 200 nM, respectively.

Consider `COC(=O)Nc1nc2ccc(-c3ccc4c(c3)CN(C(=O)N3CCC(=O)CC3c3ccc(F)cc3)CCO4)cc2[nH]1` (stereo not drawn) [Compound 14, methyl [6-(4-{[2-(4-fluorophenyl)-4-oxopiperidin-1-yl]carbonyl}-2,3,4,5-tetrahydro-1,4-benzoxazepin-7-yl)-1H-benzimidazol-2-yl]carbamate], for which the IC50 on mTORC1 (mTOR/GbL/Raptor) is 50 to 250 nM; against PI3Kα, no more than 75 nM.

Turning to `COC(=O)Nc1nc2ccc(-c3ccc4c(c3)CN(C(=O)N3CCC(O)(CF)CC3)CCO4)cc2[nH]1` [Compound 15, methyl [6-(4-{[4-(fluoromethyl)-4-hydroxypiperidin-1-yl]carbonyl}-2,3,4,5-tetrahydro-1,4-benzoxazepin-7-yl)-1H-benzimidazol-2-yl]carbamate], the IC50 lay in the range of 50 to 250 nM at mTORC1 (mTOR/GbL/Raptor) and 200 to 500 nM on PI3Kα.

With `COC(=O)Nc1nc2ccc(-c3ccc4c(c3)CN(C(=O)N3CCC(=O)CC3c3ccc(F)c(F)c3)CCO4)cc2[nH]1` (stereo not drawn) [Compound 16, methyl [6-(4-{[2-(3,4-difluorophenyl)-4-oxopiperidin-1-yl]carbonyl}-2,3,4,5-tetrahydro-1,4-benzoxazepin-7-yl)-1H-benzimidazol-2-yl]carbamate], the IC50 on mTORC1 (mTOR/GbL/Raptor) was 50 to 250 nM; against PI3Kα, no more than 75 nM.

Regarding `COC(=O)Nc1nc2ccc(-c3ccc4c(c3)CN(C(=O)N3CCC(O)(c5cccc(C(F)(F)F)c5)CC3)CCO4)cc2[nH]1` [Compound 18, methyl {6-[4-({4-hydroxy-4-[3-(trifluoromethyl)phenyl]piperidin-1-yl}carbonyl)-2,3,4,5-tetrahydro-1,4-benzoxazepin-7-yl]-1H-benzimidazol-2-yl}carbamate], the IC50 is 50 to 250 nM at mTORC1 (mTOR/GbL/Raptor) and no more than 75 nM against PI3Kα.

`COC(=O)Nc1nc2ccc(-c3ccc4c(c3)CN(C(=O)N3CCC(C(F)F)CC3)CCO4)cc2[nH]1` [Compound 19, methyl [6-(4-{[4-(difluoromethyl)piperidin-1-yl]carbonyl}-2,3,4,5-tetrahydro-1,4-benzoxazepin-7-yl)-1H-benzimidazol-2-yl]carbamate]: the IC50 lay within 50 to 250 nM on mTORC1 (mTOR/GbL/Raptor) and 200 to 500 nM against PI3Kα.

Take `COC(=O)Nc1nc2ccc(-c3ccc4c(c3)CN(C(=O)N3[C@@H]5CC[C@H]3C[C@](O)(C(F)(F)F)C5)CCO4)cc2[nH]1` [Compound 20, methyl [6-(4-{[3-(endo)-hydroxy-3-(trifluoromethyl)-8-azabicyclo[3.2.1]oct-8-yl]carbonyl}-2,3,4,5-tetrahydro-1,4-benzoxazepin-7-yl)-1H-benzimidazol-2-yl]carbamate]: the IC50 is no more than 50 nM on mTORC1 (mTOR/GbL/Raptor) and no more than 75 nM on PI3Kα.

For the molecule `COC(=O)Nc1nc2ccc(-c3ccc4c(c3)CN(C(=O)N3CCC(C#N)CC3)CCO4)cc2[nH]1` [Compound 21, methyl (6-{4-[(4-cyanopiperidin-1-yl)carbonyl]-2,3,4,5-tetrahydro-1,4-benzoxazepin-7-yl}-1H-benzimidazol-2-yl)carbamate], the IC50 on mTORC1 (mTOR/GbL/Raptor) was 50 to 250 nM; at PI3Kα, 75 to 200 nM.

As for `COC(=O)Nc1nc2ccc(-c3ccc4c(c3)CN(C(=O)N3CCC(O)(C(F)(F)F)CC3)CCO4)cc2[nH]1` [Compound 22, methyl [6-(4-{[4-hydroxy-4-(trifluoromethyl)piperidin-1-yl]carbonyl}-2,3,4,5-tetrahydro-1,4-benzoxazepin-7-yl)-1H-benzimidazol-2-yl]carbamate], the IC50 was no more than 50 nM at mTORC1 (mTOR/GbL/Raptor) and 200 to 500 nM against PI3Kα.

Turning to `CC1(O)CCN(C(=O)N2CCOc3ccc(-c4ccc5nc(N)[nH]c5c4)cc3C2)CC1` [Compound 23, 1-{[7-(2-amino-1H-benzimidazol-6-yl)-2,3-dihydro-1,4-benzoxazepin-4(5H)-yl]carbonyl}-4-methylpiperidin-4-ol], the results for the IC50 on mTORC1 (mTOR/GbL/Raptor) and on PI3Kα were no more than 50 nM and 75 to 200 nM, respectively.

With `COC(=O)Nc1nc2ccc(-c3ccc4c(c3)CN(C(=O)N3CCC(C)(O)CC3)CCO4)cc2[nH]1` [Compound 24, methyl (6-{4-[(4-hydroxy-4-methylpiperidin-1-yl)carbonyl]-2,3,4,5-tetrahydro-1,4-benzoxazepin-7-yl}-1H-benzimidazol-2-yl)carbamate], the IC50 was 250 to 700 nM on mTORC1 (mTOR/GbL/Raptor) and 200 to 500 nM against PI3Kα.

`COC(=O)Nc1nc2ccc(-c3ccc4c(c3)CN(C(=O)N3C5CCC3CC(=O)C5)CCO4)cc2[nH]1` [Compound 25, methyl (6-{4-[(3-oxo-8-azabicyclo[3.2.1]oct-8-yl)carbonyl]-2,3,4,5-tetrahydro-1,4-benzoxazepin-7-yl}-1H-benzimidazol-2-yl)carbamate]: the IC50 on mTORC1 (mTOR/GbL/Raptor) is 50 to 250 nM; against PI3Kα, 200 to 500 nM.

For `Nc1nc2ccc(-c3ccc4c(c3)CN(C(=O)N3CCC(CF)CC3)CCO4)cc2[nH]1` [Compound 26, 6-(4-{[4-(fluoromethyl)piperidin-1-yl]carbonyl}-2,3,4,5-tetrahydro-1,4-benzoxazepin-7-yl)-1H-benzimidazol-2-amine], the values for the IC50 on mTORC1 (mTOR/GbL/Raptor) and at PI3Kα were no more than 50 nM and 200 to 500 nM, respectively.

In the case of `Nc1nc2ccc(-c3ccc4c(c3)CN(C(=O)N3CCC(=O)CC3c3ccc(F)c(F)c3)CCO4)cc2[nH]1` (stereo not drawn) [Compound 27, 1-{[7-(2-amino-1H-benzimidazol-6-yl)-2,3-dihydro-1,4-benzoxazepin-4(5H)-yl]carbonyl}-2-(3,4-difluorophenyl)piperidin-4-one], the IC50 on mTORC1 (mTOR/GbL/Raptor) was no more than 50 nM; against PI3Kα it was 75 to 200 nM.

By IC50 is commonly meant the midpoint of a concentration-inhibition curve.

The record behind these values is US8637499B2, “Benzoxazepines as inhibitors of PI3K/mTOR and methods of their use and manufacture” (Exelixis, Inc., priority 2009, dated 2014).
